Reference: US20200291018A1, “TAM KINASE INHIBITORS” (SYROS PHARMACEUTICALS, INC., priority 2017, published 2020)
pIC50: −log10 of the molar value.

How the values were obtained:
MERTK = target: T1, MERTK (Homo sapiens, UniProt Q12866); assay: TR-FRET kinase activity assay, MERTK; format: biochemical; settings: for pIC50: TR-FRET activity assay, ATP at Km, 60 minutes, read-out: Mer IC50; for Mer/Flt3 ratio (FLT3 IC50/Mer IC50): ratio calculated as FLT3 IC50/Mer IC50
T1 sequence (Q12866 21-999): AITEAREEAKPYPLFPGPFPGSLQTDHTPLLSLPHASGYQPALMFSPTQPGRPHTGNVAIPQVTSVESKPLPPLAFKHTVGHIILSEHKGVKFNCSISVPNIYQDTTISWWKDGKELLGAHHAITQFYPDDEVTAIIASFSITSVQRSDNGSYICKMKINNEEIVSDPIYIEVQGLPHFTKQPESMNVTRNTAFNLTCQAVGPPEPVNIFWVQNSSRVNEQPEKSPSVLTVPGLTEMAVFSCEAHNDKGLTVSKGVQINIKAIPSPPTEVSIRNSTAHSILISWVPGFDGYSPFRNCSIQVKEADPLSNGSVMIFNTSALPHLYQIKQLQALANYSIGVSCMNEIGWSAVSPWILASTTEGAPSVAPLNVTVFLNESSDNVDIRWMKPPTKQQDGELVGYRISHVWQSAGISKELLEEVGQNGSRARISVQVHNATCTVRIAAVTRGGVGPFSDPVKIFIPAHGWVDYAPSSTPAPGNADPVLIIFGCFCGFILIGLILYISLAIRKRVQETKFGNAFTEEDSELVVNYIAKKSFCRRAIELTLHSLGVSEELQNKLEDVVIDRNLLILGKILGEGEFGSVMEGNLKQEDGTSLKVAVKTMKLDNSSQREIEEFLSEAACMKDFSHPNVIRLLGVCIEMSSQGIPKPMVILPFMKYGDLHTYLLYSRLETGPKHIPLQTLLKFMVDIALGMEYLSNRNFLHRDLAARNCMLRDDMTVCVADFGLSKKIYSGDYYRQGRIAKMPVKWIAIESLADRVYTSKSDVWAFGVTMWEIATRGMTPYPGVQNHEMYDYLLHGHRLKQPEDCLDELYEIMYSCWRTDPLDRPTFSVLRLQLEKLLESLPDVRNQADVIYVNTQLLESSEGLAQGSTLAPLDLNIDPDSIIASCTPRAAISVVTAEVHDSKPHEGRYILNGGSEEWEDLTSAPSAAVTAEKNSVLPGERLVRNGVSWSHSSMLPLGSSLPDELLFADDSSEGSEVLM
Outline: (§1)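 Each kinase phosphorylates a fluorescently labeled peptide on tyrosine in the presence of compound, with ATP at its Km, for 60 min at RT in HEPES pH 7.5 buffer with MgCl2, EGTA, Brij 35 and DTT. Product is detected by TR-FRET with a Europium-labeled phospho-specific antibody; IC50 values follow.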

TYRO3 = target: T2, TYRO3 (Homo sapiens, UniProt Q06418); assay: TR-FRET kinase activity assay, TYRO3; format: biochemical; settings: ATP at Km, 60 minutes
T2 sequence (Q06418 41-890): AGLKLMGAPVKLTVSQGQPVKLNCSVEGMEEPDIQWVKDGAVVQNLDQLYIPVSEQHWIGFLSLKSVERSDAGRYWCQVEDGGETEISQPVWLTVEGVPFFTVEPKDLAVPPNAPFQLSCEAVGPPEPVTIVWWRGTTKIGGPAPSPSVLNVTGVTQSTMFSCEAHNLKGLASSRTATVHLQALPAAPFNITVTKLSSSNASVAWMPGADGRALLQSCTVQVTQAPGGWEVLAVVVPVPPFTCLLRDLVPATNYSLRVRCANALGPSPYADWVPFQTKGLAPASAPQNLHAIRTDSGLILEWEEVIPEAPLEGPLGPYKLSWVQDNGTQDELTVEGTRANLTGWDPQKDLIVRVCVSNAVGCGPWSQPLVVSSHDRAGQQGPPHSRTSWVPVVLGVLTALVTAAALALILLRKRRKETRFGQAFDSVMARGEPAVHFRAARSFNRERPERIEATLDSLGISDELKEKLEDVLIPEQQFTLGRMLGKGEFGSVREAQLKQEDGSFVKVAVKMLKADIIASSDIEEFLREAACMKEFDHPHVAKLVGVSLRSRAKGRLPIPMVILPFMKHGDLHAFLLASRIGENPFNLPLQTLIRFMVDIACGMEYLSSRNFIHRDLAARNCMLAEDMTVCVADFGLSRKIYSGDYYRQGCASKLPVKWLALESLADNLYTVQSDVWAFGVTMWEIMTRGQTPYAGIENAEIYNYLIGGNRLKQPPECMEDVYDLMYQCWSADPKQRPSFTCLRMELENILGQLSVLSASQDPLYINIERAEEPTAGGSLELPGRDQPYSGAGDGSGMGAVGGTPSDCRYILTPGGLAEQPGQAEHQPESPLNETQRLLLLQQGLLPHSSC
Outline: as §1

## CCCC(C)Nc1ncc2c(OC3CCOCC3)ncc([C@H]3CC[C@@H](N(C)C)CC3)c2n1 (stereo partly drawn) [Compound 184]
MERTK
  pIC50: ≥ 7.00
  Mer/Flt3 ratio (FLT3 IC50/Mer IC50): ++ (a ratio of between 10 and 100)
TYRO3
  pIC50: < 5.00

## CCCC(C)Nc1ncc2c(OC3CCOCC3)ncc([C@H]3CC[C@H](N(C)C)CC3)c2n1 (stereo partly drawn) [Compound 185]
MERTK
  pIC50: ≥ 7.00
  Mer/Flt3 ratio (FLT3 IC50/Mer IC50): ++ (a ratio of between 10 and 100)
TYRO3
  pIC50: < 5.00

## CCCC(C)Nc1ncc2c(=O)n(C3CCN(C(C)C)CC3)cc([C@H]3CC[C@H](O)CC3)c2n1 (stereo partly drawn) [Compound 186]
MERTK
  pIC50: ≥ 7.00
  Mer/Flt3 ratio (FLT3 IC50/Mer IC50): +++ (a ratio of >100)
TYRO3
  pIC50: < 5.00

## CCCC(C)Nc1ncc2c(O[C@H]3C[C@H](O)C3)ncc([C@H]3CC[C@H](O)CC3)c2n1 (stereo partly drawn) [Compound 187]
MERTK
  pIC50: ≥ 7.00
  Mer/Flt3 ratio (FLT3 IC50/Mer IC50): ++ (a ratio of between 10 and 100)
TYRO3
  pIC50: ≥ 7.00

## CCCC(C)Nc1ncc2c(N3CCC[C@@H](N(C)C)C3)ncc([C@H]3CC[C@H](O)CC3)c2n1 (stereo partly drawn) [Compound 188]
MERTK
  pIC50: ≥ 7.00
  Mer/Flt3 ratio (FLT3 IC50/Mer IC50): +++ (a ratio of >100)
TYRO3
  pIC50: < 5.00

## C[C@H](Nc1ncc2c(OC3CCNCC3)ncc([C@H]3CC[C@H](O)CC3)c2n1)c1ccccc1 [Compound 189]
MERTK
  pIC50: ≥ 7.00
  Mer/Flt3 ratio (FLT3 IC50/Mer IC50): ++ (a ratio of between 10 and 100)
TYRO3
  pIC50: < 5.00

## CCC[C@H](C)Nc1ncc2c(OC3CCN(C)CC3)ncc([C@H]3CC[C@H](O)CC3)c2n1 [Compound 190]
MERTK
  pIC50: ≥ 7.00
  Mer/Flt3 ratio (FLT3 IC50/Mer IC50): +++ (a ratio of >100)
TYRO3
  pIC50: 6.00 to 7.00

## CCCC(C)Nc1ncc2c(OCCN(C)C)ncc([C@H]3CC[C@H](O)CC3)c2n1 (stereo partly drawn) [Compound 191]
MERTK
  pIC50: ≥ 7.00
  Mer/Flt3 ratio (FLT3 IC50/Mer IC50): +++ (a ratio of >100)
TYRO3
  pIC50: < 5.00

## CCCC(C)Nc1ncc2c(=O)n(C3CCN(C(=O)CN(C)C)CC3)cc([C@H]3CC[C@H](O)CC3)c2n1 (stereo partly drawn) [Compound 192]
MERTK
  pIC50: ≥ 7.00
  Mer/Flt3 ratio (FLT3 IC50/Mer IC50): +++ (a ratio of >100)
TYRO3
  pIC50: < 5.00

## CCCC(C)Nc1ncc2c(=O)n(CC3CCN(C)CC3)cc([C@H]3CC[C@H](O)CC3)c2n1 (stereo partly drawn) [Compound 193]
MERTK
  pIC50: ≥ 7.00
  Mer/Flt3 ratio (FLT3 IC50/Mer IC50): +++ (a ratio of >100)
TYRO3
  pIC50: < 5.00

## C[C@@H](CC(F)(F)F)Nc1ncc2c(O[C@H]3C[C@](C)(O)C3)ncc([C@H]3CC[C@H](O)CC3)c2n1 [Compound 430]
MERTK
  pIC50: ≥ 7.00
  Mer/Flt3 ratio (FLT3 IC50/Mer IC50): +++ (a ratio of >100)
TYRO3
  pIC50: ≥ 7.00

## COC[C@H](C)Nc1ncc2c(O[C@H]3C[C@@H](O)C3(C)C)ncc([C@H]3CC[C@H](O)CC3)c2n1 [Compound 431]
MERTK
  pIC50: ≥ 7.00
  Mer/Flt3 ratio (FLT3 IC50/Mer IC50): +++ (a ratio of >100)
TYRO3
  pIC50: ≥ 7.00

## COCCN1[C@@H]2CC[C@H]1C[C@H](Oc1ncc([C@H]3CC[C@H](O)CC3)c3nc(N[C@@H](C)CC(F)(F)F)ncc13)C2 [Compound 432]
MERTK
  pIC50: ≥ 7.00
  Mer/Flt3 ratio (FLT3 IC50/Mer IC50): +++ (a ratio of >100)
TYRO3
  pIC50: ≥ 7.00

## CC(=O)N[C@H]1C[C@@H](Oc2ncc([C@H]3CC[C@H](O)CC3)c3nc(N[C@@H](C)CC(F)(F)F)ncc23)C1 [Compound 433]
MERTK
  pIC50: ≥ 7.00
  Mer/Flt3 ratio (FLT3 IC50/Mer IC50): +++ (a ratio of >100)
TYRO3
  pIC50: ≥ 7.00

## CO[C@H]1C[C@@H](Oc2ncc([C@H]3CC[C@H](O)CC3)c3nc(N[C@@H](C)CC(F)(F)F)ncc23)C1 [Compound 434]
MERTK
  pIC50: ≥ 7.00
  Mer/Flt3 ratio (FLT3 IC50/Mer IC50): +++ (a ratio of >100)
TYRO3
  pIC50: ≥ 7.00

## COC(=O)N[C@H]1C[C@@H](Oc2ncc([C@H]3CC[C@H](O)CC3)c3nc(N[C@@H](C)CC(F)(F)F)ncc23)C1 [Compound 435]
MERTK
  pIC50: ≥ 7.00
  Mer/Flt3 ratio (FLT3 IC50/Mer IC50): +++ (a ratio of >100)
TYRO3
  pIC50: ≥ 7.00

## CC(=O)N1[C@@H]2CC[C@H]1C[C@H](Oc1ncc([C@H]3CC[C@H](O)CC3)c3nc(N[C@@H](C)CC(F)(F)F)ncc13)C2 [Compound 436]
MERTK
  pIC50: ≥ 7.00
  Mer/Flt3 ratio (FLT3 IC50/Mer IC50): +++ (a ratio of >100)
TYRO3
  pIC50: ≥ 7.00

## C[C@@H](CC(F)(F)F)Nc1ncc2c(O[C@@H]3C[C@H]4CC[C@@H](C3)N4C3COC3)ncc([C@H]3CC[C@H](O)CC3)c2n1 [Compound 437]
MERTK
  pIC50: ≥ 7.00
  Mer/Flt3 ratio (FLT3 IC50/Mer IC50): +++ (a ratio of >100)
TYRO3
  pIC50: ≥ 7.00
